Measured values published in US20260262643A1, “HERBICIDAL BENZOXAZINES” (FMC CORPORATION, priority 2022, published 2026).

Experiments:
[1] = system: galium; assay: Test C postemergence; assay type: in vivo, Galium aparine; conditions: 10 days
Summary of the method: (§1)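 Seeds in loam–sand blend received preemergence directed soil spray of test chemicals in non-phytotoxic solvent with surfactant; postemergence treatment was applied at one- to two-leaf stage (2–10 cm). After 10 days in greenhouse, injury rated visually versus untreated controls, 0 (no effect) to 100 (complete control).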

[2] = system: oat, wild; assay: Test C preemergence; assay type: in vivo, Avena fatua; conditions: for Oat, Wild plant response rating: preemergence; for Plant response rating, Oat, Wild: Preemergence
Summary of the method: as §1

[3] = system: soybean; assay: Test C preemergence; assay type: in vivo, Glycine max; conditions: for Soybean plant response rating: preemergence; for Plant response rating, Soybean: Preemergence
Summary of the method: as §1

[4] = system: ryegrass, Italian; assay: Test C preemergence; assay type: in vivo, Lolium multiflorum; conditions: for Ryegrass, Italian plant response rating: preemergence; for Plant response rating, Ryegrass, Italian: Preemergence
Summary of the method: as §1

[5] = system: ducksalad; assay: Test D flooded paddy test; assay type: in vivo, Heteranthera limosa; conditions: 250 g ai/ha, applied to paddy water, visual rating after 13 to 14 days, scale 0 to 100 (0 no effect, 100 complete control)
Summary of the method: (§2)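 Plants grown to the 2-leaf stage; pots flooded to 3 cm above soil at treatment and held at that depth throughout. Test compounds applied directly to the paddy water. After 13 to 14 days in a greenhouse, response was rated visually versus controls on a 0 (no effect) to 100 (complete control) scale.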

[6] = system: wheat; assay: Test C postemergence; assay type: in vivo, Triticum aestivum; conditions: 10 days
Summary of the method: as §1

[7] = system: barnyardgrass; assay: Test C preemergence; assay type: in vivo, Echinochloa crusgalli; conditions: for Barnyardgrass plant response rating: preemergence; for Plant response rating, Barnyardgrass: Preemergence
Summary of the method: as §1

[8] = system: blackgrass; assay: Test C preemergence; assay type: in vivo, Alopecurus myosuroides; conditions: for Blackgrass plant response rating: preemergence; for Plant response rating, Blackgrass: Preemergence
Summary of the method: as §1

[9] = system: ragweed; assay: Test C preemergence; assay type: in vivo, Ambrosia artemisiifolia; conditions: for Ragweed plant response rating: preemergence; for Plant response rating, Ragweed: Preemergence
Summary of the method: as §1

[10] = system: ragweed; assay: Test C postemergence; assay type: in vivo, Ambrosia artemisiifolia; conditions: 10 days
Summary of the method: as §1

[11] = system: green foxtail; assay: Test C preemergence; assay type: in vivo, Setaria viridis; conditions: for Foxtail, Green plant response rating: preemergence; for Plant response rating, Foxtail, Green: Preemergence
Summary of the method: as §1

[12] = system: barnyardgrass; assay: Test D flooded paddy test; assay type: in vivo, Echinochloa crus-galli; conditions: 250 g ai/ha, applied to paddy water, visual rating after 13 to 14 days, scale 0 to 100 (0 no effect, 100 complete control)
Summary of the method: as §2

[13] = system: pigweed, palmer; assay: Test C preemergence; assay type: in vivo, Amaranthus palmeri; conditions: for Pigweed, Palmer plant response rating: preemergence; for Plant response rating, Pigweed, Palmer: Preemergence
Summary of the method: as §1

[14] = system: wheat; assay: Test C preemergence; assay type: in vivo, Triticum aestivum; conditions: for Wheat plant response rating: preemergence; for Plant response rating, Wheat: Preemergence
Summary of the method: as §1

[15] = system: green foxtail; assay: Test C postemergence; assay type: in vivo, Setaria viridis; conditions: 10 days
Summary of the method: as §1

[16] = system: kochia; assay: Test C postemergence; assay type: in vivo, Bassia scoparia; conditions: 10 days
Summary of the method: as §1

[17] = system: horseweed; assay: Test C postemergence; assay type: in vivo, Erigeron canadensis; conditions: 10 days
Summary of the method: as §1

[18] = system: kochia; assay: Test C preemergence; assay type: in vivo, Bassia scoparia; conditions: for Kochia plant response rating: preemergence; for Plant response rating, Kochia: Preemergence
Summary of the method: as §1

[19] = system: corn; assay: Test C postemergence; assay type: in vivo, Zea mays; conditions: 10 days
Summary of the method: as §1

[20] = system: soybean; assay: Test C postemergence; assay type: in vivo, Glycine max; conditions: 10 days
Summary of the method: as §1

[21] = system: rice; assay: Test D flooded paddy test; assay type: in vivo, Oryza sativa; conditions: 250 g ai/ha, applied to paddy water, visual rating after 13 to 14 days, scale 0 to 100 (0 no effect, 100 complete control)
Summary of the method: as §2

[22] = system: barnyardgrass; assay: Test C postemergence; assay type: in vivo, Echinochloa crusgalli; conditions: 10 days
Summary of the method: as §1

[23] = system: ryegrass, Italian; assay: Test C postemergence; assay type: in vivo, Lolium multiflorum; conditions: 10 days
Summary of the method: as §1

[24] = system: oat, wild; assay: Test C postemergence; assay type: in vivo, Avena fatua; conditions: 10 days
Summary of the method: as §1

[25] = system: sedge, umbrella; assay: Test D flooded paddy test; assay type: in vivo, Cyperus difformis; conditions: 250 g ai/ha, applied to paddy water, visual rating after 13 to 14 days, scale 0 to 100 (0 no effect, 100 complete control)
Summary of the method: as §2

[26] = system: pigweed, palmer; assay: Test C postemergence; assay type: in vivo, Amaranthus palmeri; conditions: 10 days
Summary of the method: as §1

[27] = system: corn; assay: Test C preemergence; assay type: in vivo, Zea mays; conditions: for Corn plant response rating: preemergence; for Plant response rating, Corn: Preemergence
Summary of the method: as §1

[28] = system: blackgrass; assay: Test C postemergence; assay type: in vivo, Alopecurus myosuroides; conditions: 10 days
Summary of the method: as §1

[29] = 500 g ai/ha, postemergence, 0 to 100 scale (0 no effect, 100 complete control)
[30] = Postemergence, 125 g ai/ha, 0 to 100 scale (0 no effect, 100 complete control)
[31] = 500 g ai/ha, 0 to 100 scale (0 no effect, 100 complete control)
[32] = 125 g ai/ha, 0 to 100 scale, 0 no effect, 100 complete control
[33] = 125 g ai/ha, postemergence, 0 to 100 scale, 0 no effect, 100 complete control
[34] = Postemergence, 500 g ai/ha, visual 0 to 100 scale (0 no effect, 100 complete control)
[35] = 500 g ai/ha, visual rating after 10 days, 0 to 100 scale (0 no effect, 100 complete control)
[36] = Test C, 125 g ai/ha, 0 to 100 scale (0 no effect, 100 complete control)

CCOC[C@H]1CN(C(=O)c2cc(-n3cnc(C(C)(C)C)n3)cc3c2OCCO3)c2cccc(Cl)c2O1 [Compound 388]
Plant response rating, Galium [1, 29]: 100 | Plant response rating, Galium [1, 30]: 70 | Oat, Wild plant response rating [2, 31]: 40 | Plant response rating, Oat, Wild [2, 32]: 20 | Soybean plant response rating [3, 31]: 90 | Plant response rating, Soybean [3, 32]: 90 | Ryegrass, Italian plant response rating [4, 31]: 60 | Plant response rating, Ryegrass, Italian [4, 32]: 50 | Plant response rating, Ducksalad (Flood) [5]: 0 | Plant response rating, Wheat [6, 29]: 10 | Plant response rating, Wheat [6, 30]: 10 | Barnyardgrass plant response rating [7, 31]: 90 | Plant response rating, Barnyardgrass [7, 32]: 50 | Blackgrass plant response rating [8, 31]: 40 | Plant response rating, Blackgrass [8, 32]: 10 | Ragweed plant response rating [9, 31]: 60 | Plant response rating, Ragweed [9, 32]: 60 | Plant response rating, Ragweed [10, 29]: 50 | Plant response rating, Ragweed [10, 30]: 60 | Foxtail, Green plant response rating [11, 31]: 100 | Plant response rating, Foxtail, Green [11, 32]: 60 | Plant response rating, Barnyardgrass (Flood) [12]: 0 | Pigweed, Palmer plant response rating [13, 31]: 100 | Plant response rating, Pigweed, Palmer [13, 32]: 100 | Wheat plant response rating [14, 31]: 20 | Plant response rating, Wheat [14, 32]: 20 | Plant response rating, Foxtail, Green [15, 29]: 90 | Plant response rating, Foxtail, Green [15, 30]: 10 | Plant response rating, Kochia [16, 29]: 90 | Plant response rating, Kochia [16, 30]: 90 | Plant response rating, Horseweed [17, 29]: 30 | Plant response rating, Horseweed [17, 30]: 0 | Kochia plant response rating [18, 31]: 100 | Plant response rating, Kochia [18, 32]: 40 | Plant response rating, Corn [19, 29]: 30 | Plant response rating, Corn [19, 30]: 10 | Plant response rating, Soybean [20, 29]: 100 | Plant response rating, Soybean [20, 30]: 100 | Plant response rating, Rice (Flood) [21]: 0 | Plant response rating, Barnyardgrass [22, 29]: 20 | Plant response rating, Barnyardgrass [22, 30]: 10 | Plant response rating, Ryegrass, Italian [23, 29]: 30 | Plant response rating, Ryegrass, Italian [23, 30]: 20 | Plant response rating, Oat, Wild [24, 29]: 40 | Plant response rating, Oat, Wild [24, 30]: 20 | Plant response rating, Sedge, Umbrella (Flood) [25]: 0 | Plant response rating, Pigweed, Palmer [26, 29]: 100 | Plant response rating, Pigweed, Palmer [26, 30]: 100 | Corn plant response rating [27, 31]: 10 | Plant response rating, Corn [27, 32]: . 10 | Plant response rating, Blackgrass [28, 29]: 0 | Plant response rating, Blackgrass [28, 30]: 0

CCc1ccc(-n2cnc(C(C)C)n2)cc1C(=O)N1C[C@H](C)Oc2c(C)cccc21 [Compound 240]
Plant response rating, Galium [1, 33]: 100 | Plant response rating, Galium [1, 34]: 100 | Plant response rating, Oat, Wild [2, 35]: 90 | Oat, Wild plant response rating [2, 36]: 90 | Plant response rating, Soybean [3, 35]: 100 | Soybean plant response rating [3, 36]: 100 | Plant response rating, Ryegrass, Italian [4, 35]: 100 | Ryegrass, Italian plant response rating [4, 36]: 100 | Plant response rating, Ducksalad (Flood) [5]: 80 | Plant response rating, Wheat [6, 33]: 20 | Plant response rating, Wheat [6, 34]: 50 | Plant response rating, Barnyardgrass [7, 35]: 100 | Barnyardgrass plant response rating [7, 36]: 90 | Plant response rating, Blackgrass [8, 35]: 90 | Blackgrass plant response rating [8, 36]: 60 | Plant response rating, Ragweed [9, 35]: 20 | Ragweed plant response rating [9, 36]: 10 | Plant response rating, Ragweed [10, 33]: 50 | Plant response rating, Ragweed [10, 34]: 80 | Plant response rating, Foxtail, Green [11, 35]: 100 | Foxtail, Green plant response rating [11, 36]: 100 | Plant response rating, Barnyardgrass (Flood) [12]: 35 | Plant response rating, Pigweed, Palmer [13, 35]: 100 | Pigweed, Palmer plant response rating [13, 36]: 100 | Plant response rating, Wheat [14, 35]: 90 | Wheat plant response rating [14, 36]: 60 | Plant response rating, Foxtail, Green [15, 33]: 80 | Plant response rating, Foxtail, Green [15, 34]: 90 | Plant response rating, Kochia [16, 33]: 30 | Plant response rating, Kochia [16, 34]: 90 | Plant response rating, Horseweed [17, 33]: 0 | Plant response rating, Horseweed [17, 34]: 70 | Plant response rating, Kochia [18, 35]: 100 | Kochia plant response rating [18, 36]: 70 | Plant response rating, Corn [19, 33]: 60 | Plant response rating, Corn [19, 34]: 80 | Plant response rating, Soybean [20, 33]: 100 | Plant response rating, Soybean [20, 34]: 100 | Plant response rating, Rice (Flood) [21]: 10 | Plant response rating, Barnyardgrass [22, 33]: 40 | Plant response rating, Barnyardgrass [22, 34]: 80 | Plant response rating, Ryegrass, Italian [23, 33]: 70 | Plant response rating, Ryegrass, Italian [23, 34]: 90 | Plant response rating, Oat, Wild [24, 33]: 60 | Plant response rating, Oat, Wild [24, 34]: 70 | Plant response rating, Sedge, Umbrella (Flood) [25]: 100 | Plant response rating, Pigweed, Palmer [26, 33]: 90 | Plant response rating, Pigweed, Palmer [26, 34]: 100 | Plant response rating, Corn [27, 35]: 60 | Corn plant response rating [27, 36]: 70 | Plant response rating, Blackgrass [28, 33]: 80 | Plant response rating, Blackgrass [28, 34]: 90
